In patent publication US20240262815A1, “HETEROARYL DERIVATIVE, METHOD FOR PREPARING SAME, AND PHARMACEUTICAL COMPOSITION COMPRISING SAME AS ACTIVE INGREDIENT” (VORONOI INC., priority 2021, published 2024) one finds GI50 data, which are given here for 16 compounds.

Assay [1] concerns BT-474 cancer cells. As to the kind of experiment: Inhibitory activity against proliferation of BT-474 cancer cells (CellTiter-Glo). As to conditions: Homo sapiens, BT-474 ErbB2-overexpressing cancer cells, 120 hours after treatment. Format: cell-based. The gist of the method: (§1)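 Cells seeded 48 h before dosing (SK-BR-3 in McCOY'S 5A + 10% FBS; BT-474 in RPMI-1640 + 20% FBS), then exposed 120 h to 12 concentrations, 0.2 nM-5 μM final. Viability by CellTiter-Glo luminescence; GI50 from growth rate vs control, triplicate runs.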
On the technique in general: ATP-based viability assays read luminescence as a measure of living cells.

The subject of assay [2] is SK-BR-3 cancer cells. As to the kind of experiment: Inhibitory activity against proliferation of SK-BR-3 cancer cells (CellTiter-Glo). Format: cell-based. As to conditions: Homo sapiens, SK-BR-3, 120 h, ErbB2-overexpressing SK-BR-3 cells, 120 hours after treatment. Put shortly: as §1

`C=CC(=O)Nc1cc(Nc2cc(N3OCC[C@@H]3c3ccc(F)c(-c4cccc(F)c4)c3)ncn2)c(OC)cc1N(C)CCN(C)C` [Example 310, (R)-N-(5-((6-(3-(3′,6-difluoro-[1,1′-biphenyl]-3-yl)-isoxazolidin-2-yl)-pyrimidin-4-yl)-amino)-2-((2-(dimethylamino)-ethyl)(methyl)-amino)-4-methoxy-phenyl)acrylamide]: the 50% growth inhibitory concentration (GI50) in assay [1] and in assay [2] was under 50 nM throughout.

In the case of `C=CC(=O)Nc1cc(Nc2cc(N3OCC[C@@H]3c3cccc(C#Cc4cccc(F)c4)c3)ncn2)c(OC)cc1N1CCN(C)CC1` [Example 314, (R)-N-(5-((6-(3-(3-((3-fluorophen-yl)ethynyl)phenyl)-isoxazolidin-2-yl)-pyrimidin-4-yl)-amino)-4-methoxy-2-(4-methylpiper-azin-1-yl)phenyl)-acrylamide], the GI50 in assay [1] and in assay [2] was 50 to 500 nM each time.

`C=CC(=O)Nc1cc(Nc2cc(N3OCC[C@@H]3c3cccc(C#Cc4cccc(O)c4)c3)ncn2)c(OC)cc1N1CCN(C)CC1` [Example 315, (R)-N-(5-((6-(3-(3-((3-hydroxy-phenyl)ethynyl)-phenyl)isoxazol-idin-2-yl)pyrim-idin-4-yl)amino)-4-methoxy-2-(4-methylpiperazin-1-yl)phenyl)acryl-amide]: the GI50 – broadly, the concentration that inhibits growth by half – in assay [1] lay within 50 to 500 nM; in assay [2], 500 to 5000 nM.

With `C=CC(=O)Nc1cc(Nc2cc(N3OCC[C@@H]3c3cccc(-c4cccc(F)c4)c3)ncn2)c(OC)cc1N1CCC(N2CCC2)CC1` [Example 317, (R)-N-(2-(4-(azeti-din-1-yl)piperidin-1-yl)-5-((6-(3-(3′-fluoro-[1,1′-biphen-yl]-3-yl)isoxazol-idin-2-yl)pyrim-idin-4-yl)amino)-4-methoxyphen-yl)acrylamide], the GI50 in assay [1] and in assay [2] was under 50 nM in each case.

As to `C=CC(=O)Nc1cc(Nc2cc(N3OCC[C@@H]3c3cccc(-c4cccc(F)c4)c3)ncn2)c(OC)cc1N1CCN2CCCC2C1` (stereo partly drawn) [Example 318, N-(5-((6-((R)-3-(3′-fluoro-[1,1′-biphenyl]-3-yl)-isoxazolidin-2-yl)-pyrimidin-4-yl)-amino)-2-(hexa-hydropyrrolo[1,2-a]pyrazin-2(1H)-yl)-4-methoxy-phenyl)acrylamide], the GI50 was under 50 nM in assay [1] and 50 to 500 nM in assay [2].

With `C=CC(=O)Nc1cc(Nc2cc(N3OCC[C@@H]3c3cccc(-c4cccc(F)c4)c3)ncn2)c(OC)cc1N1CCN(C2CC2)[C@@H](C)C1` [Example 320, N-(2-((S)-4-cyclo-propyl-3-methyl-piperazin-1-yl)-5-((6-((R)-3-(3′-fluoro-[1,1′-biphen-yl]-3-yl)isoxazol-idin-2-yl)pyrim-idin-4-yl)amino)-4-methoxyphen-yl)acrylamide], the GI50 in assay [1] and in assay [2] was under 50 nM throughout.

For the compound `C=CC(=O)Nc1cc(Nc2cc(N3OCC[C@@H]3c3cccc(-c4cccc(F)c4)c3)ncn2)c(OC)cc1N1CC2(C1)CN(S(C)(=O)=O)C2` [Example 322, (R)-N-(5-((6-(3-(3′-fluoro-[1,1′-biphenyl]-3-yl)-isoxazolidin-2-yl)-pyrimidin-4-yl)-amino)-4-methoxy-2-(6-(methylsulfon-yl)-2,6-diazaspiro-[3.3]heptan-2-yl)-phenyl)acrylamide], the GI50 in assay [1] and in assay [2] was under 50 nM in each case.

Regarding `C=CC(=O)Nc1cc(Nc2cc(N3OCC[C@@H]3c3cccc(-c4cccc(F)c4)c3)ncn2)c(OC)cc1N1CC2(CN(C(=O)COC)C2)C1` [Example 323, (R)-N-(5-((6-(3-(3′-fluoro-[1,1′-biphenyl]-3-yl)-isoxazolidin-2-yl)-pyrimidin-4-yl)-amino)-4-methoxy-2-(6-(2-methoxy-acetyl)-2,6-diaza-spiro[3.3]heptan-2-yl)phenyl)acryl-amide], the 50% growth inhibitory concentration (GI50) in assay [1] was under 50 nM; in assay [2] it was 50 to 500 nM.

Take `C=CC(=O)Nc1cc(Nc2cc(N3OCC[C@@H]3c3cccc(-c4cccc(F)c4)c3)ncn2)c(OC)cc1N1CCC(N2CCN(S(C)(=O)=O)CC2)CC1` [Example 324, (R)-N-(5-((6-(3-(3′-fluoro-[1,1′-biphenyl]-3-yl)-isoxazolidin-2-yl)-pyrimidin-4-yl)-amino)-4-methoxy-2-(4-(4-(methyl-sulfonyl)piperazin-1-yl)piperidin-1-yl)-phenyl)acrylamide]: the GI50 in assay [1] and in assay [2] was under 50 nM each time.

Regarding `C=CC(=O)Nc1cc(Nc2cc(N3OCCC3c3cccc(OCc4ccccn4)c3)ncn2)c(OC)cc1N(C)CCN(C)C` (centres unmarked) [Example compound 95, N-(2-((2-(dimethylamino)ethyl)(methyl)amino)-4-methoxy-5-((6-(3-(3-(pyridin-2-ylmethoxy)phenyl)isoxazolidin-2-yl)pyrimidin-4-yl)amino)phenyl)acrylamide], the GI50 in assay [1] and in assay [2] was under 50 nM in each case.

Take `C=CC(=O)Nc1cc(Nc2cc(N3OCCC3c3cccc(OCc4ccccn4)c3)ncn2)c(OC)cc1N1CCN(C)CC1` (centres unmarked) [Example compound 96, N-(4-methoxy-2-(4-methylpiperazin-1-yl)-5-((6-(3-(3-(pyridin-2-ylmethoxy)phenyl)isoxazolidin-2-yl)pyrimidin-4-yl)amino)phenyl)acrylamide]: the GI50 in assay [1] and in assay [2] was under 50 nM each time.

For `C=CC(=O)Nc1cc(Nc2cc(N3OCCC3c3cccc(OCc4ccccn4)c3)ncn2)c(OC)cc1N1CCC(N2CCN(C3CC3)CC2)CC1` (centres unmarked) [Example compound 98, N-(2-(4-(4-cyclopropylpiperazin-1-yl)piperidin-1-yl)-4-methoxy-5-((6-(3-(3-(pyridin-2-ylmethoxy)phenyl)isoxazolidin-2-yl)pyrimidin-4-yl)amino)phenyl)acrylamide], the GI50 in assay [1] and in assay [2] was under 50 nM each time.

Take `C=CC(=O)Nc1cc(Nc2cc(N3OCCC3c3ccc(Cl)c(OCc4cccc(F)c4)c3)ncn2)c(OC)cc1N1CCC(N2CCN(C3CC3)CC2)CC1` (centres unmarked) [Example compound 116, N-(5-((6-(3-(4-chloro-3-((3-fluorobenzyl)oxy)phenyl)isoxazolidin-2-yl)pyrimidin-4-yl)amino)-2-(4-(4-cyclopropylpiperazin-1-yl)piperidin-1-yl)-4-methoxyphenyl)acrylamide]: the concentration for 50% growth inhibition (GI50) in assay [1] was 50 to 500 nM; in assay [2] it was under 50 nM.

For the compound `C=CC(=O)Nc1cc(Nc2cc(N3OCC[C@@H]3c3cccc(-c4cccs4)c3)ncn2)c(OC)cc1N1CCC(N2CCN(C3CC3)CC2)CC1` [Example compound 135, (R)-N-(2-(4-(4-cyclopropylpiperazin-1-yl)piperidin-1-yl)-4-methoxy-5-((6-(3-(3-(thiophen-2-yl)phenyl)isoxazolidin-2-yl)pyrimidin-4-yl)amino)phenyl)acrylamide], the GI50 in assay [1] and in assay [2] was under 50 nM throughout.

As to `C=CC(=O)Nc1cc(Nc2cc(N3OCCC3c3ccc(F)c(OCc4cccc(F)c4)c3)ncn2)c(OC)cc1N1CCC(N2CCN(C3CC3)CC2)CC1` (centres unmarked) [Example compound 150, N-(2-(4-(4-cyclopropylpiperazin-1-yl)piperidin-1-yl)-5-((6-(3-(4-fluoro-3-((3-fluorobenzyl)oxy)phenyl)isoxazolidin-2-yl)pyrimidin-4-yl)amino)-4-methoxyphenyl)acrylamide], the GI50 in assay [1] and in assay [2] was under 50 nM each time.

Take `C=CC(=O)Nc1cc(Nc2cc(N3OCCC3c3ccc(F)c(OCc4cccc(F)c4)c3)ncn2)c(OC)cc1N1CCN(C)CC1` (centres unmarked) [Example compound 151, N-(5-((6-(3-(4-fluoro-3-((3-fluorobenzyl)oxy)phenyl)isoxazolidin-2-yl)pyrimidin-4-yl)amino)-4-methoxy-2-(4-methylpiperazin-1-yl)phenyl)acrylamide]: the concentration for 50% growth inhibition (GI50) in assay [1] and in assay [2] was under 50 nM each time.
